In PubChem BioAssay AID248 (DTP/NCI, 2004) one finds T/C data, which are given here for 17 compounds.

Several values for one entry are separate records, joined by “and”; a condition that tells them apart may be missing. Identical values can stand only once. Toxic doses and inconclusive results are not listed.

The assay has as its system L1210 leukemia ip in BDF1 mice, survival T/C. Briefly: NCI In Vivo Anticancer Drug Screen. Data for tumor model L1210 Leukemia (intraperitoneal) in B6D2F1 (BDF1) mice. Particulars: endpoint: mean survival time, higher = longer survival. In short, it runs like this: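 Ratio derived from survival: compound-dosed mice over vehicle-dosed mice, all bearing a transplantable tumor.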

The mark [1] stands for this setting: dose: 50.0 mg/kg/injection, schedule: Q01DX001 (ip), vehicle: carboxymethylcellulose (CMC).
Setting [2] is: dose: 100.0 mg/kg/injection, schedule: Q01DX009 (ip), vehicle: saline.
Where [3] appears, read: dose: 100.0 mg/kg/injection, schedule: Q04DX003 (ip), vehicle: Klucel (hydroxypropylcellulose) (HPC).
The mark [4] stands for this setting: dose: 200.0 mg/kg/injection, schedule: Q04DX003 (ip), vehicle: Klucel (hydroxypropylcellulose) (HPC).
The mark [5] stands for this setting: dose: 400.0 mg/kg/injection, schedule: Q04DX003 (ip), vehicle: Klucel (hydroxypropylcellulose) (HPC).
Where [6] appears, read: dose: 100.0 mg/kg/injection, schedule: Q01DX009 (ip), vehicle: saline with Tween-80.
Where [7] appears, read: dose: 200.0 mg/kg/injection, schedule: Q01DX009 (ip), vehicle: saline with Tween-80.
Setting [8] is: dose: 100.0 mg/kg/injection, schedule: Q01DX001 (ip), vehicle: saline.
The mark [9] stands for this setting: dose: 200.0 mg/kg/injection, schedule: Q01DX001 (ip), vehicle: saline.
Setting [10] is: dose: 400.0 mg/kg/injection, schedule: Q01DX001 (ip), vehicle: saline.
The mark [11] stands for this setting: dose: 100.0 mg/kg/injection, schedule: Q04DX003 (ip), vehicle: saline with Tween-80.
Setting [12] is: dose: 200.0 mg/kg/injection, schedule: Q04DX003 (ip), vehicle: saline with Tween-80.
Where [13] appears, read: dose: 400.0 mg/kg/injection, schedule: Q01DX009 (ip), vehicle: saline with Tween-80.
[14] abbreviates: dose: 400.0 mg/kg/injection, schedule: Q04DX003 (ip), vehicle: saline with Tween-80.
The mark [15] stands for this setting: dose: 100.0 mg/kg/injection, schedule: Q01DX009 (ip), vehicle: Klucel (hydroxypropylcellulose) (HPC).
Where [16] appears, read: dose: 200.0 mg/kg/injection, schedule: Q01DX009 (ip), vehicle: Klucel (hydroxypropylcellulose) (HPC).
[17] abbreviates: dose: 400.0 mg/kg/injection, schedule: Q01DX009 (ip), vehicle: Klucel (hydroxypropylcellulose) (HPC).

Turning to `Cn1c(=O)c2ccccc2c2cc(Br)ccc21`, the T/C runs as follows: (dose: 100.0 mg/kg/injection, schedule: Q04DX003 (ip), vehicle: other) 90 % of control; (dose: 200.0 mg/kg/injection, schedule: Q04DX003 (ip), vehicle: other) 92 % of control; (dose: 400.0 mg/kg/injection, schedule: Q04DX003 (ip), vehicle: other) 95 % of control.

As for `CCN=C(N)c1ccc(N=C(N)c2ccc(C(N)=Nc3ccc(C(N)=NCC)cc3)cc2)cc1`, the T/C by setting is: (dose: 7.5 mg/kg/injection, schedule: Q01DX Z (oral), vehicle: saline) 98 % of control; (dose: 15.0 mg/kg/injection, schedule: Q01DX Z (ip), vehicle: saline) 258 % of control; (dose: 15.0 mg/kg/injection, schedule: Q01DX Z (oral), vehicle: saline) 100 % of control; (dose: 30.0 mg/kg/injection, schedule: Q01DX Z (oral), vehicle: saline) 102 % of control; (dose: 60.0 mg/kg/injection, schedule: Q01DX Z (oral), vehicle: saline) 102 % of control; (dose: 125.0 mg/kg/injection, schedule: Q## X010 (oral), vehicle: saline) 103 % of control. Moreover, the T/C (dose: 150.0 mg/kg/injection, schedule: Q01DX Z (oral), vehicle: saline) was 89 % of control and the T/C (dose: 250.0 mg/kg/injection, schedule: Q## X010 (oral), vehicle: saline) was 195 % of control.

In the case of `NC1(C(=O)O)CCCc2ccc(N(CCCl)CCCl)cc21` (stereo not given), the T/C reads like this: (dose: 0.45 mg/kg/injection, schedule: Q01DX009 (ip), vehicle: carboxymethylcellulose (CMC)) 101 % of control; (dose: 0.95 mg/kg/injection, schedule: Q01DX009 (ip), vehicle: carboxymethylcellulose (CMC)) 124 % of control; (dose: 1.8 mg/kg/injection, schedule: Q01DX009 (ip), vehicle: carboxymethylcellulose (CMC)) 119 % of control; (dose: 6.0 mg/kg/injection, schedule: Q01DX001 (ip), vehicle: carboxymethylcellulose (CMC)) 121 % of control; (dose: 8.3 mg/kg/injection, schedule: Q01DX009 (ip), vehicle: carboxymethylcellulose (CMC)) 152 % of control; (dose: 10.8 mg/kg/injection, schedule: Q01DX009 (ip), vehicle: carboxymethylcellulose (CMC)) 168 % of control. Moreover, the T/C (dose: 11.0 mg/kg/injection, schedule: Q01DX001 (ip), vehicle: carboxymethylcellulose (CMC)) was 114 % of control and 124 % of control; the T/C (dose: 12.5 mg/kg/injection, schedule: Q01DX009 (ip), vehicle: carboxymethylcellulose (CMC)) is 163 % of control and 165 % of control; the T/C (dose: 16.0 mg/kg/injection, schedule: Q01DX001 (ip), vehicle: carboxymethylcellulose (CMC)) was 112 % of control; the T/C (dose: 18.0 mg/kg/injection, schedule: Q01DX009 (ip), vehicle: carboxymethylcellulose (CMC)) is 161 % of control; the T/C (dose: 48.0 mg/kg/injection, schedule: Q01DX001 (ip), vehicle: carboxymethylcellulose (CMC)) is 114 % of control; the T/C under setting [1] was 123 % of control.

Consider `COc1cccc(CCNC(=O)CC#N)c1OC`, for which the T/C reads like this: under setting [2], 90 % of control; under setting [3], 100 % of control; (dose: 200.0 mg/kg/injection, schedule: Q01DX009 (ip), vehicle: saline) 95 % of control; under setting [4], 102 % of control; under setting [5], 97 % of control.

In the case of `COc1ccc(Cl)cc1`, the T/C runs as follows: under setting [6], 92 % of control; under setting [7], 90 % of control.

Consider `O=C1OC(=O)C2C(c3ccccc3)=CC(c3ccccc3)=CC12` (stereo not given), for which the T/C is, setting by setting: under setting [8], 98 % of control; under setting [9], 107 % of control; under setting [10], 102 % of control.

In the case of `Cc1ccc(NC(=O)Nc2cccc(C(F)(F)F)c2)cc1Cl`, the T/C is, setting by setting: (dose: 100.0 mg/kg/injection, schedule: Q01DX009 (ip), vehicle: gum acacia) 92 % of control; (dose: 200.0 mg/kg/injection, schedule: Q01DX009 (ip), vehicle: gum acacia) 89 % of control; (dose: 400.0 mg/kg/injection, schedule: Q01DX009 (ip), vehicle: gum acacia) 91 % of control.

For the compound `COC(=O)c1cc2c(cc1O)CCCC2`, the T/C under setting [1] was 107 % of control; the T/C (dose: 100.0 mg/kg/injection, schedule: Q01DX001 (ip), vehicle: carboxymethylcellulose (CMC)) is 113 % of control; the T/C (dose: 200.0 mg/kg/injection, schedule: Q01DX001 (ip), vehicle: carboxymethylcellulose (CMC)) is 107 % of control; the T/C (dose: 400.0 mg/kg/injection, schedule: Q01DX001 (ip), vehicle: carboxymethylcellulose (CMC)) was 107 % of control.

`O=c1[nH]c(=O)c2ccccc2c2ccccc12`: the T/C is 99 % of control under setting [6]; 102 % of control under setting [11]; 86 % of control under setting [7]; 107 % of control under setting [12]; 93 % of control under setting [13]; 102 % of control under setting [14].

For the compound `O=C(NC(=S)Nc1ccc(S(=O)(=O)c2ccc(NC(=S)NC(=O)c3ccccc3)cc2)cc1)c1ccccc1`, the T/C was 102 % of control under setting [15]; 94 % of control (dose: 100.0 mg/kg/injection, schedule: Q04DX002 (ip), vehicle: Klucel (hydroxypropylcellulose) (HPC)); 94 % of control under setting [16]; 94 % of control (dose: 200.0 mg/kg/injection, schedule: Q04DX002 (ip), vehicle: Klucel (hydroxypropylcellulose) (HPC)); 91 % of control under setting [17]; 102 % of control (dose: 400.0 mg/kg/injection, schedule: Q04DX002 (ip), vehicle: Klucel (hydroxypropylcellulose) (HPC)).

Consider `CCC/C=C(\C)CCCCCCCCC` (tested in a mixture with another compound), for which the T/C is 98 % of control under setting [11], 101 % of control under setting [12] and 106 % of control under setting [14].

Take `C[SiH]1c2ccccc2CCc2ccccc21`: the T/C by setting is: under setting [15], 102 % of control; under setting [3], 104 % of control; under setting [16], 104 % of control; under setting [4], 105 % of control; under setting [17], 106 % of control; under setting [5], 107 % of control.

`CNc1nc2nc[nH]c2c(=S)n1C`: the T/C under setting [8] was 103 % of control and the T/C under setting [9] was 100 % of control.

As for `COc1ccc2c(c1)CCC1C2=CCC2C(=O)CCC(=O)C21` (stereo not given), the T/C runs as follows: (dose: 50.0 mg/kg/injection, schedule: Q01DX001 (ip), vehicle: Klucel (hydroxypropylcellulose) (HPC)) 101 % of control; (dose: 100.0 mg/kg/injection, schedule: Q01DX001 (ip), vehicle: Klucel (hydroxypropylcellulose) (HPC)) 101 % of control; (dose: 200.0 mg/kg/injection, schedule: Q01DX001 (ip), vehicle: Klucel (hydroxypropylcellulose) (HPC)) 93 % of control.

Consider `Cc1nc(C(=O)O)cs1`, for which the T/C (dose: 50.0 mg/kg/injection, schedule: Q01DX009 (ip), vehicle: saline) is 95 % of control; the T/C (dose: 50.0 mg/kg/injection, schedule: Q04DX003 (ip), vehicle: acetone) is 90 % of control; the T/C (dose: 100.0 mg/kg/injection, schedule: Q01DX001 (ip), vehicle: acetone) was 98 % of control; the T/C under setting [2] is 92 % of control; the T/C (dose: 100.0 mg/kg/injection, schedule: Q04DX003 (ip), vehicle: acetone) was 92 % of control; the T/C (dose: 200.0 mg/kg/injection, schedule: Q01DX001 (ip), vehicle: acetone) is 102 % of control. Also, the T/C (dose: 200.0 mg/kg/injection, schedule: Q04DX003 (ip), vehicle: acetone) is 95 % of control.

In the case of `N#Cc1ccccc1CCc1ccccc1`, the T/C reads like this: (dose: 50.0 mg/kg/injection, schedule: Q01DX001 (ip), vehicle: saline) 106 % of control; under setting [8], 102 % of control; under setting [9], 106 % of control; under setting [10], 98 % of control.

As to `O=C(NC1N=C2OC(COC(=O)c3ccccc3)C(OC(=O)c3ccccc3)C2O1)c1ccccc1` (stereo not given), the T/C reads like this: under setting [6], 108 % of control; under setting [7], 93 % of control; under setting [13], 98 % of control.
